According to patent US4368200A, “Heterocyclic derivatives of (4-phenyl-piperazine-1-yl-aryloxymethyl-1,3-dioxolan-2-yl)-methyl-1H-imi dazoles and 1H-1,2,4-triazoles” (Janssen Pharmaceutica N.V., priority 1981, dated 1983):

Tested on: Candida albicans
Test: Experiment A: activity against vaginal candidosis in rats
Type: in vivo, Female Wistar rats
Settings: po, 336 h, orally once a day for two days starting from the day of infection, active at the 14th day after infection, read-out: Vaginal candidosis in rats: lowest effective dose in mg/kg orally
Experimental: Female Wistar rats of ±100 g body weight are used. They are ovariectomized and hysterectomized and after three weeks of recovery, 100 μg of oestradiol undecylate in sesame oil is given subcutaneously once a week for 3 consecutive weeks. The thus induced pseudo-oestrus is controlled by microscopic examination of vaginal smears. Food and water are left available ad libitum. The rats are infected intravaginally with 8.10^5 cells of Candida albicans, grown on Sabouraud broth for 48 hours at 37° C. and diluted with saline. The data of infection varies from day +25 to day +32 after surgical intervention, depending on the appearance of signs of induced pseudo-oestrus. The drugs under investigation are administered orally once a day for two days starting from the day of infection. For each experiment there are placebo treated controls. The results are assessed by taking vaginal smears with sterile swabs on several days after the infection. The swabs are put into Sabouraud broth in petri-dishes and incubated for 48 hours at 37° C. If no growth of Candida albicans occurs, i.e., when the animals are negative at the end of the experiment, this is due to drug administration because it never happens in placebo-treated controls. The table below gives the lowest oral dose of the drug under investigation which is found active at the 14th day after infection.

Row | SMILES | minimal effective dose [mg/kg]
1 | Clc1ccc([C@@]2(Cn3ccnc3)OC[C@H](COc3ccc(N4CCN(c5ccc(-n6cccn6)cc5)CC4)cc3)O2)c(Cl)c1 (relative stereo) | 2.5
2 | Clc1ccc([C@@]2(Cn3cncn3)OC[C@H](COc3ccc(N4CCN(c5ccc(-n6cccn6)cc5)CC4)cc3)O2)c(Cl)c1 (relative stereo) | 2.5
3 | Clc1ccc([C@@]2(Cn3ccnc3)OC[C@H](COc3ccc(N4CCN(c5ccc(-n6ccnc6)cc5)CC4)cc3)O2)c(Cl)c1 (relative stereo) | 1.25
4 | Clc1ccc([C@@]2(Cn3cncn3)OC[C@H](COc3ccc(N4CCN(c5ccc(-n6ccnc6)cc5)CC4)cc3)O2)c(Cl)c1 (relative stereo) | 1.25
5 | Clc1ccc([C@@]2(Cn3ccnc3)OC[C@H](COc3ccc(N4CCN(c5ccc(-n6cncn6)cc5)CC4)cc3)O2)c(Cl)c1 (relative stereo) | 0.63
6 | Clc1ccc([C@@]2(Cn3cncn3)OC[C@H](COc3ccc(N4CCN(c5ccc(-n6cncn6)cc5)CC4)cc3)O2)c(Cl)c1 (relative stereo) | 0.63
7 | CSc1ncn(-c2ccc(N3CCN(c4ccc(OC[C@H]5CO[C@](Cn6ccnc6)(c6ccc(Cl)cc6Cl)O5)cc4)CC3)cc2)n1 (relative stereo) | 2.5
8 | CSc1ncn(-c2ccc(N3CCN(c4ccc(OC[C@H]5CO[C@](Cn6cncn6)(c6ccc(Cl)cc6Cl)O5)cc4)CC3)cc2)n1 (relative stereo) | 1.25
9 | CSc1nc(C)n(-c2ccc(N3CCN(c4ccc(OC[C@H]5CO[C@](Cn6ccnc6)(c6ccc(Cl)cc6Cl)O5)cc4)CC3)cc2)n1 (relative stereo) | 2.5
10 | CSc1nc(C)n(-c2ccc(N3CCN(c4ccc(OC[C@H]5CO[C@](Cn6cncn6)(c6ccc(Cl)cc6Cl)O5)cc4)CC3)cc2)n1 (relative stereo) | ≤ 0.63
11 | CSc1nnc(C)n1-c1ccc(N2CCN(c3ccc(OC[C@H]4CO[C@](Cn5cncn5)(c5ccc(Cl)cc5Cl)O4)cc3)CC2)cc1 (relative stereo) | 2.5
12 | CSc1nncn1-c1ccc(N2CCN(c3ccc(OC[C@H]4CO[C@](Cn5cncn5)(c5ccc(Cl)cc5Cl)O4)cc3)CC2)cc1 (relative stereo) | 2.5
13 | Cc1ncnn1-c1ccc(N2CCN(c3ccc(OC[C@H]4CO[C@](Cn5cncn5)(c5ccc(Cl)cc5Cl)O4)cc3)CC2)cc1 (relative stereo) | 0.63
14 | Cc1nn(C)c(=O)n1-c1ccc(N2CCN(c3ccc(OC[C@H]4CO[C@](Cn5ccnc5)(c5ccc(Cl)cc5Cl)O4)cc3)CC2)cc1 (relative stereo) | 0.63
15 | Cc1nn(C)c(=O)n1-c1ccc(N2CCN(c3ccc(OC[C@H]4CO[C@](Cn5cncn5)(c5ccc(Cl)cc5Cl)O4)cc3)CC2)cc1 (relative stereo) | ≤ 0.63
16 | Clc1ccc([C@@]2(Cn3cncn3)OC[C@H](COc3ccc(N4CCN(c5ccc(-n6cnnn6)cc5)CC4)cc3)O2)c(Cl)c1 (relative stereo) | < 2.5
17 | Cn1ncn(-c2ccc(N3CCN(c4ccc(OC[C@H]5CO[C@](Cn6cncn6)(c6ccc(Cl)cc6Cl)O5)cc4)CC3)cc2)c1=O (relative stereo) | ≥ 0.63
18 | Cn1ncn(-c2ccc(N3CCN(c4ccc(OC[C@H]5CO[C@](Cn6ccnc6)(c6ccc(Cl)cc6Cl)O5)cc4)CC3)cc2)c1=O (relative stereo) | 1
19 | CCn1ncn(-c2ccc(N3CCN(c4ccc(OC[C@H]5CO[C@](Cn6ccnc6)(c6ccc(Cl)cc6Cl)O5)cc4)CC3)cc2)c1=O (relative stereo) | 1.25
20 | CCCn1nc(C)n(-c2ccc(N3CCN(c4ccc(OC[C@H]5CO[C@](Cn6ccnc6)(c6ccc(Cl)cc6Cl)O5)cc4)CC3)cc2)c1=O (relative stereo) | 0.63
21 | CCn1nc(C)n(-c2ccc(N3CCN(c4ccc(OC[C@H]5CO[C@](Cn6cncn6)(c6ccc(Cl)cc6Cl)O5)cc4)CC3)cc2)c1=O (relative stereo) | < 0.63
22 | CCCn1nc(C)n(-c2ccc(N3CCN(c4ccc(OC[C@H]5CO[C@](Cn6cncn6)(c6ccc(Cl)cc6Cl)O5)cc4)CC3)cc2)c1=O (relative stereo) | 0.5
23 | CCn1ncn(-c2ccc(N3CCN(c4ccc(OC[C@H]5CO[C@](Cn6cncn6)(c6ccc(Cl)cc6Cl)O5)cc4)CC3)cc2)c1=O (relative stereo) | ≥ 0.16
24 | CCn1nc(C)n(-c2ccc(N3CCN(c4ccc(OC[C@H]5CO[C@](Cn6ccnc6)(c6ccc(Cl)cc6Cl)O5)cc4)CC3)cc2)c1=O (relative stereo) | 1.25
